First: CCOC(=O)c1[nH]c2cc(Cl)cc(Cl)c2c1NCS(=O)(=O)c1ccccc1
Second: CN(C)C(=O)Nc1c(C(=O)c2ccccc2)[nH]c2cc(Cl)ccc12
The melting point of the first is higher: 244 to 245 °C for the first, 222 to 223 °C for the second.

Compared with `Cn1nc(-c2ccc(F)cc2)c(-c2ccncc2)c1CC(=O)Cc1ccccc1`, `CCn1cc(-c2sc(NC(=O)c3ccncc3)nc2-c2ccco2)ccc1=O` is higher in melting point: 148 to 151 °C for the first, 285 to 289 °C for the second.

Compared with `CN(C)S(=O)(=O)c1ccc2c3c(cccc13)C(NCCCn1ccnc1)=N2`, `CNCCN(C)C(=O)[C@@H]1CCCN1S(=O)(=O)c1ccc(Cl)c(COc2cccc3c(-n4ccnc4)cc(C)nc23)c1Cl` is lower in melting point: 199 to 201 °C for the first, 116 °C for the second.

First: CN(C(N)=O)C1c2ccccc2Oc2ccccc21
Second: CCOC(=O)C1=C(C)N=C(SCc2ccccc2)N(C(=O)OCC)C1c1ccccc1[N+](=O)[O-] (centres undefined)
The melting point of the first is higher: 199 to 202 °C for the first, 110 to 112 °C for the second.

First: CC(C)S(=O)(=O)c1ccc2c(c1)nc(CC1CCCC1)n2CC1CC1
Second: CCOC(=O)CCCN(C(=O)CCC1CCCCC1)C1N=C(c2ccccc2)c2ccccc2N(C)C1=O (centres undefined)
The melting point of the first is higher: 137 °C for the first, 103 to 105 °C for the second.

Compared with `Cc1ccc2[nH]c(-c3ccccc3)c(CCN3CCCCC3)c2c1`, `Nc1cccc2[nH]c3c(c12)CCN(Cc1ccccc1)CC3` is higher in melting point: 163 to 164 °C for the first, 164 to 165 °C for the second.

First: CCCCc1nc2c([nH]c(=O)c3ccccc32)s1
Second: CCC(C)Oc1ccccc1-c1ncc(C(N)=O)c(=O)[nH]1 (centres undefined)
The melting point of the first is lower: 172 to 173 °C for the first, 183 to 185 °C for the second.

Compared with `CC1(C)CC(=O)C2=C(C1)NC1=C(C(=O)CC(C)(C)C1)C2c1ccc(Cl)c(Oc2ccncc2)c1`, `N#Cc1c(F)cc(OCc2ccncc2)cc1OC(C(=O)O)c1ccccc1Cl` (racemic) is lower in melting point: 242 to 244 °C for the first, 135 to 139 °C for the second.

Compared with `Oc1cc2c(cc1CCCOc1ccccc1)OC(CCc1ccccc1)C2` (centres undefined), `Clc1cccc(Cn2ccc(CN3CCC(c4ccccc4)(c4ccccc4)CC3)n2)c1` is higher in melting point: 65 to 70 °C for the first, 136 to 137 °C for the second.

Compared with `CNC(=O)[C@@H](C[C@H](O)[C@H](CC(C)C)NC(=O)OC(C)(C)C)C(C)(C)O`, `CCOC(=O)C1=C(C)NC(C)=C(C(=O)OC(C)C)C1c1csc2ccncc12` (centres undefined) is higher in melting point: 121 to 123 °C for the first, 212 to 215 °C for the second.

First: CCOC(=O)CC[C@H](NC(=O)c1ccc(N2CCN(c3c(N)nc(N)nc3CC)CC2)cc1)C(=O)OCC
Second: COc1ccccc1-c1cnn2ccc(N3CCN(C(=O)OC(C)C)CC3)nc12
The melting point of the first is higher: 226 to 228 °C for the first, 57 to 59 °C for the second.

First: CC(=O)Nc1ccc(OC(C)C(=O)O)cc1 (centres undefined)
Second: CC(=O)Oc1cc2ccccc2cc1C(=O)O
The melting point of the first is lower: 170 to 172 °C for the first, 185 to 186 °C for the second.

First: CC1(C)C(C=C2C(C(F)(F)F)C2(F)F)C1C(=O)O (centres undefined)
Second: O=c1[nH]nc(C(F)(F)F)s1
The melting point of the first is lower: 45.7 °C for the first, 54 to 55 °C for the second.

First: C=CCOc1ccc(Cl)cc1NC(=O)Cc1ccc(OC)c(OC2CCCC2)c1
Second: COc1cc2c(cc1O)/C(=N/OCc1ccc([N+](=O)[O-])cc1)CCC2
The melting point of the first is lower: 75 to 76.5 °C for the first, 125 to 127 °C for the second.

First: N#Cc1cc2ccccc2[nH]1
Second: N=C(NC1CC1)c1cc2c(cn1)[nH]c1ccccc12
The melting point of the first is lower: 94 to 95 °C for the first, 253 °C for the second.

First: COC(=O)Cc1ccc(CN2CCN(C(c3ccccc3)c3ccc(Cl)cc3)CC2)cc1 (centres undefined)
Second: Cc1ncccc1C(C#N)N1CCN(C(=O)CC(NC(=O)Cc2cccc(OCc3ccc4ccccc4n3)c2)c2ccccc2)CC1 (centres undefined)
The melting point of the first is higher: 113 to 115 °C for the first, 83 to 86 °C for the second.

Compared with `CC(C)(C)[N+]([O-])=Cc1cc(Cl)cc(Cl)c1O`, `Cc1cc(O)c(Cl)c(O)c1` is lower in melting point: 103 °C for the first, 72 °C for the second.

First: CCNC(=O)c1cccc(F)c1Nc1nc(Nc2cc3c(cc2OC)CCN(CC(=O)N(C)C)CC3)ncc1Cl
Second: CN1CCN(C(=O)C2CCC(Nc3ncc4ncnc(Nc5ccc(F)c(Cl)c5)c4n3)CC2)CC1 (centres undefined)
The melting point of the first is lower: 95 to 105 °C for the first, 194 to 197 °C for the second.

Compared with `COc1ccc(S(=O)O)c(OC)c1`, `COc1ccc2c(c1)COc1c-2ccc2c(OC)cccc12` is higher in melting point: 89 to 91 °C for the first, 166 to 167 °C for the second.

First: NNC(=O)c1cnc2c(=O)[nH]c3ccccc3n2c1=O
Second: CC1(C)NC(=O)CN1C(=O)CNC(=O)OCc1ccccc1
The melting point of the first is higher: > 300 °C for the first, 135 to 136 °C for the second.

First: NC(=O)C(Sc1ccccc1)c1cccc(C(=O)c2ccc(Cl)cc2)c1N (centres undefined)
Second: O=C(N[C@@H](CO)c1ccccc1)c1cccc(I)c1
The melting point of the first is higher: 189 to 191 °C for the first, 154 to 156 °C for the second.

First: C#CCNC(=O)N1CC(c2ccc(Cl)c(Cl)c2)C1
Second: CCNC(=O)c1cc(NC)ccc1[Si](C)(C)C
The melting point of the first is higher: 106 to 108 °C for the first, 101 to 102 °C for the second.

First: N#Cc1c(N2CCc3ccccc3CC2)nc(COC2CCCCO2)[nH]c1=O (centres undefined)
Second: CSc1nc2ccccc2n1C1CCN(CCCC(=O)c2ccc(F)cc2)CC1
The melting point of the first is higher: 180 to 183 °C for the first, 98 to 98.5 °C for the second.

First: CC(C)(C)OC(=O)CSc1cccc(-c2nc(=O)c3ccccc3s2)n1
Second: COc1cc(Nc2nccc(-c3ccc(NC(=O)OC(C)(C)C)cc3)n2)cc(OC)c1OC
The melting point of the first is higher: 170 °C for the first, 158 to 159 °C for the second.

First: COc1ccc(C(C)OC)c(OC)c1C(O)c1cn(C(c2ccccc2)(c2ccccc2)c2ccccc2)cn1 (centres undefined)
Second: CCOC(=O)c1csc(NC(c2ccccc2)(c2ccccc2)c2ccccc2)n1
The melting point of the first is lower: 96 to 99 °C for the first, 140 to 141 °C for the second.

Compared with `COc1ccc2ccc(N3C(=O)c4ccccc4C3CC(=O)CCCO)nc2n1` (centres undefined), `CCOc1ccc(CNC(=O)C(=O)NCCc2ccccn2)c(OC)c1` is lower in melting point: 152 °C for the first, 117 to 118 °C for the second.

Compared with `CC(O)COc1ccc2c(c1)c(-c1cc3cccnc3[nH]1)cn2C` (centres undefined), `CCOC(=O)C(C)Oc1ccc(Oc2nc3ccc(Cl)cc3cc2Cl)cc1` (centres undefined) is lower in melting point: 198 to 199 °C for the first, 70 °C for the second.

First: O=C(c1ccc(Nc2ccncc2)cc1)N1CCCCC1
Second: CC(=O)NNc1ccc(N=Cc2ccccc2)cc1
The melting point of the first is lower: 170 to 172 °C for the first, 172 to 174 °C for the second.

First: C=CCOC(=O)c1c(Oc2nc(OC)cc(OC)n2)ccc2[nH]c(C)c(NC(C)=O)c12
Second: CCCCCCCCCC(=O)Oc1ccc(/C=C2/C(=O)Nc3cc(OC)c(OC)cc32)cc1
The melting point of the first is higher: 177 to 180 °C for the first, 138 to 140 °C for the second.

First: CC(=O)Nc1nc(Cl)c2ncn(COC(COC(C)C)COC(C)C)c2n1
Second: CCON=C(C)c1ccc2c(c1)ncn2-c1cccc(COCc2ncnn2C)c1
The melting point of the first is lower: 106 °C for the first, 130 to 134 °C for the second.

First: COc1cc(N)c(Cl)cc1-c1nn(C2CCN(CCc3ccccc3)CC2)c(=O)o1
Second: COc1cc(N2CCC(N3CCOCC3)CC2)ccc1Nc1ncc2ccc(-c3ccccc3S(C)(=O)=O)n2n1
The melting point of the first is higher: 184 °C for the first, 111 to 112 °C for the second.

First: CC(C)Cn1cnc(C#N)c1N
Second: Oc1ncc(-c2ccc(Cl)cc2)cn1
The melting point of the first is lower: 186 to 188 °C for the first, 324 to 327 °C for the second.

First: Cc1ccc(-c2ccc3c(c2)C=C(C(=O)Nc2ccc(CS(=O)c4ccccc4)cc2)CCO3)cc1 (centres undefined)
Second: CCOC(=O)c1ccc(-c2ccc(-c3ccccc3)c(-c3cc4c(cc3O)C(C)(C)CCC4(C)C)c2)cc1
The melting point of the first is lower: 127 to 128 °C for the first, 145 °C for the second.

Compared with `COC1C=CC2C3Cc4ccc(O)c5c4C2(CCN3C)C1O5` (centres undefined), `COc1ccc2c(c1)CCC(N(CC(=O)O)C(=O)C(C)CSC(C)=O)C2` (centres undefined) is lower in melting point: 242 to 243 °C for the first, 118 to 122 °C for the second.

First: COc1cccc([C@H]2O[C@H](CC(=O)NCCCCCC(=O)O)C(=O)N(CC(C)(C)CO)c3ccc(Cl)cc32)c1OC
Second: CCCCCCCc1ccccc1C=CC(=O)c1ccc(OCC=C(C)C)cc1O
The melting point of the first is higher: 96 to 98 °C for the first, 65 to 67 °C for the second.

First: CN1C(O)=C(C(=O)Nc2ccc(Cl)cc2)c2sccc2S1(=O)=O
Second: CCOP(=O)(Cc1ccc(NC(=O)CCc2cnoc2-c2ccc(F)cc2)cc1)OCC
The melting point of the first is higher: 172 °C for the first, 134 to 135 °C for the second.

First: Cc1ccc(S(=O)(=O)OCC2COc3ccc([N+](=O)[O-])c(C=CC#N)c3O2)cc1 (centres undefined)
Second: CC(=O)c1ccc(-c2ccc(F)cc2)c([N+](=O)[O-])c1
The melting point of the first is higher: 117 to 118 °C for the first, 88 to 90 °C for the second.

Compared with `CCOC(=O)C1=C(C)NC(C=O)=C(C(=O)OCC)C1c1ccco1` (centres undefined), `CCOC(=O)C1=C(OCC)C(OCC)=NS1(=O)=O` is higher in melting point: 78 to 79.5 °C for the first, 129 to 133 °C for the second.

First: CCN(CC)CCSc1nnc(SCN2C(=O)c3ccccc3S2(=O)=O)s1
Second: CCN(CC)C(=O)n1cc(C(=O)C2CSC(c3cccnc3)N2)c2ccccc21 (centres undefined)
The melting point of the first is higher: 93 to 94.5 °C for the first, 84 °C for the second.

Compared with `CCCc1nc2c(N)nc(C)c(C)c2n1NC1CCCCC1`, `CNn1c(SC)nnc(C(C)C2CC2)c1=O` (centres undefined) is lower in melting point: 177 to 179 °C for the first, 66 to 68 °C for the second.

Compared with `CCN(CC)c1ccc(C(=O)C(C)(C)N2CCOCC2)cc1`, `CC(=NOCCO)c1ccc(-c2ccc(C)cc2)cc1` is higher in melting point: 86 to 89 °C for the first, 142 to 144 °C for the second.

Compared with `CC12CCC3C(CC4OC45CC(O)CCC35C)C1CCC2=O` (centres undefined), `COCOCC(=O)C1CCC2C3CCC4=CC(=O)CCC4(C)C3CCC12C` (centres undefined) is lower in melting point: 197 to 200 °C for the first, 195 °C for the second.

First: CN[C@@H](CSC(c1ccccc1)(c1ccccc1)c1ccccc1)C(=O)O
Second: CCOC(=O)c1cc2c(CC)nc(CC)cc2n(Cc2ccc(-c3ccccc3-c3nnn(C(c4ccccc4)(c4ccccc4)c4ccccc4)n3)cc2)c1=O
The melting point of the first is higher: 114 °C for the first, 110 to 112 °C for the second.

Compared with `CCCCCCCCCCCCCCCCCCCCC(=O)Nc1ccn(C2OC(CO)C(O)C2O)c(=O)n1` (centres undefined), `CC(CC(=O)O)CC(=O)CCCCCCCCCCC(=O)O` (centres undefined) is lower in melting point: 139 to 142 °C for the first, 84 to 85 °C for the second.

First: CCOC(=O)c1cn(CC)c2cc(-c3csc(CN(C)C(C)=O)n3)c(F)cc2c1=O
Second: CC(=O)NCc1cccc(Nc2nccc(-c3sc(-c4ncc(C(F)(F)F)cc4Cl)nc3C)n2)c1
The melting point of the first is lower: 173 to 175 °C for the first, 217 to 218 °C for the second.

Compared with `CC(C)(C)CC(C)(C)n1scc(Cl)c1=O`, `C[C@@H](Nc1c(Nc2cccnc2)c(=O)c1=O)C(C)(C)C` is higher in melting point: 137 to 140 °C for the first, 283 to 285 °C for the second.

First: Cl/C(=C\n1ccnc1)c1ccc(Cl)cc1Cl
Second: Cc1c(-c2cccc(O)c2O)c(=O)oc2cc(O)ccc12
The melting point of the first is lower: 59.1 °C for the first, 273 to 274 °C for the second.

Compared with `COc1c(NOCc2ccc(C(C)(C)C)cc2)ccnc1C`, `Cc1noc(NS(=O)(=O)C23CSc4cccc(c42)OCO3)c1C` (centres undefined) is higher in melting point: 113 °C for the first, 135 to 137 °C for the second.

Compared with `CC(/C=C/c1c(C)oc(C)c1C)=C\C=C\C(C)=C\C(=O)O`, `C=CCC(=CC(N)C(=O)O)CP(=O)(O)O` (centres undefined) is lower in melting point: 213 to 214 °C for the first, 154 to 157 °C for the second.

In the case of `c1cc(C2OCCO2)ccc1C1OCCO1`, the melting point was 86 to 89 °C.
